Laboratory results as given in the supplement of paper PMC10627819.

Tests used:
S. pneumoniae D39V [1] = assay: fitness (endpoint OD595 vs no drug) (fraction); higher = more growth
Procedure, shortened: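 Cultures at OD595 0.01 were dispensed into 384-well plates in TSB, LB Lennox or CY and incubated at 37 °C. Every 30 min for 14 h, OD595 was read and corrected by the first reading. Fitness is the optical density at entry into stationary phase relative to the robust mean of no-drug control wells, capped at 1.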

B. subtilis 168 = assay: Bliss interaction score (quartile over a dose matrix) (fitness difference); higher = more antagonism (negative = synergy)
Procedure, shortened: (§1)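 The Bliss score takes observed fitness and subtracts the expected fitness, calculated as a product of single-drug fitness values. Those single-drug values were inferred from the combination data. Fitness is OD595 at entry into stationary phase divided by the plate's robust no-drug mean, capped at 1, and the score is summarised by quartiles across technical, biological and donor/recipient replicates.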

S. aureus DSM 20231 = assay: as above
Procedure, shortened: as §1

S. aureus Newman = assay: as above
Procedure, shortened: as §1

S. pneumoniae D39V [2] = assay: as above
Procedure, shortened: as §1
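Throughout, for Bliss interaction score (quartile over a dose matrix): first quartile when negative (synergy) and third quartile when positive (antagonism).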

CC[C@H]1OC(=O)[C@H](C)[C@@H](O[C@H]2C[C@@](C)(OC)[C@@H](O)[C@H](C)O2)[C@H](C)[C@@H](O[C@@H]2O[C@H](C)C[C@H](N(C)C)[C@H]2O)[C@](C)(OC)C[C@@H](C)C(=O)[C@H](C)[C@@H](O)[C@]1(C)O [Clarithromycin] + O=C(O[C@@H]1Cc2c(O)cc(O)cc2O[C@@H]1c1cc(O)c(O)c(O)c1)c1cc(O)c(O)c(O)c1 [EGCG]
fitness, S. pneumoniae D39V [1], one replicate
Details	first compound 0.007812 µg/mL	first compound 0.01562 µg/mL	first compound 0.03125 µg/mL
partner 12.5 µg/mL	0.808	0.8	0.635
partner 25 µg/mL	0.847	0.762	0.609
partner 50 µg/mL	0.827	0.77	0.614

fitness, S. pneumoniae D39V [1]
Details	first compound 0.0625 µg/mL	first compound 0.07 µg/mL	first compound 0.125 µg/mL	first compound 0.14 µg/mL	first compound 0.25 µg/mL	first compound 0.28 µg/mL
partner 12.5 µg/mL	0.457	0.123	0.241	0.0422	0.0839	0.0515
partner 25 µg/mL	0.493	0.115	0.25	0.0716	0.0874	0.0518
partner 50 µg/mL	0.383	0.144	0.373	0.0769	0.122	0.0507

Details	Bliss interaction score
B. subtilis 168	0.0404
S. aureus DSM 20231	0.109
S. aureus Newman	0.132
S. pneumoniae D39V [2]	-0.0473

CCC[C@@H]1C[C@@H](C(=O)N[C@@H]([C@H]2O[C@H](SC)[C@H](O)[C@@H](O)[C@H]2O)[C@H](C)Cl)N(C)C1 [Clindamycin] + CO[C@H]1/C=C/O[C@@]2(C)Oc3c(C)c(O)c4c(O)c(c(/C=N/N5CCN(C)CC5)c(O)c4c3C2=O)NC(=O)/C(C)=C\C=C\[C@H](C)[C@H](O)[C@@H](C)[C@@H](O)[C@@H](C)[C@H](OC(C)=O)[C@@H]1C [Rifampicin]
fitness, S. pneumoniae D39V [1]
Details	first compound 0.0125 µg/mL	first compound 0.015 µg/mL	first compound 0.025 µg/mL	first compound 0.03 µg/mL	first compound 0.05 µg/mL	first compound 0.06 µg/mL
partner 0.025 µg/mL	0.795	–	0.539	–	0.273	–
partner 0.05 µg/mL	0.811	–	0.523	–	0.215	0.226
partner 0.1 µg/mL	0.341	0.267	0.223	0.212	0.15	0.164

fitness, S. pneumoniae D39V [1], one replicate
Details	first compound 0.015 µg/mL	first compound 0.03 µg/mL	first compound 0.06 µg/mL
partner 0.025 µg/mL	0.702	0.496	0.229
partner 0.2 µg/mL	0	0	0

Details	Bliss interaction score
B. subtilis 168	-0.223
S. aureus DSM 20231	0.027
S. aureus Newman	0.0465
S. pneumoniae D39V [2]	-0.077

CCC[C@@H]1C[C@@H](C(=O)N[C@@H]([C@H]2O[C@H](SC)[C@H](O)[C@@H](O)[C@H]2O)[C@H](C)Cl)N(C)C1 [Clindamycin] + C[C@@H](O)[C@H]1C(=O)N2C(C(=O)O)=C(SCCNC=N)C[C@H]12 [Imipenem]
fitness, S. pneumoniae D39V [1]
Details	first compound 0.0125 µg/mL	first compound 0.015 µg/mL	first compound 0.025 µg/mL	first compound 0.03 µg/mL	first compound 0.05 µg/mL	first compound 0.06 µg/mL
partner 0.005 µg/mL	0.753	–	0.5	–	0.213	–
partner 0.0065 µg/mL	–	0.843	–	0.628	–	0.176
partner 0.01 µg/mL	0.763	–	0.486	–	0.202	–
partner 0.013 µg/mL	–	0.877	–	0.744	–	0.46
partner 0.02 µg/mL	0.758	–	0.468	–	0.19	–
partner 0.026 µg/mL	–	0.824	–	0.644	–	0.299

Details	Bliss interaction score
B. subtilis 168	0.159
S. aureus DSM 20231	0.0276
S. aureus Newman	-0.0198
S. pneumoniae D39V [2]	-0.0804

CCC[C@@H]1C[C@@H](C(=O)N[C@@H]([C@H]2O[C@H](SC)[C@H](O)[C@@H](O)[C@H]2O)[C@H](C)Cl)N(C)C1 [Clindamycin] + Clc1ccc(COC(Cn2ccnc2)c2ccc(Cl)cc2Cl)c(Cl)c1 [Miconazole]
S. pneumoniae D39V [1]
Details	fitness
first compound 0.0125 µg/mL, partner 1.25 µg/mL	0.688
first compound 0.0125 µg/mL, partner 2.5 µg/mL	0.758
first compound 0.0125 µg/mL, partner 5 µg/mL	0.761
first compound 0.015 µg/mL, partner 1.073 µg/mL	0.944
first compound 0.015 µg/mL, partner 2.145 µg/mL	0.945
first compound 0.015 µg/mL, partner 4.29 µg/mL	0.906
first compound 0.025 µg/mL, partner 1.25 µg/mL	0.433
first compound 0.025 µg/mL, partner 2.5 µg/mL	0.485
first compound 0.025 µg/mL, partner 5 µg/mL	0.444
first compound 0.03 µg/mL, partner 1.073 µg/mL	0.772
first compound 0.03 µg/mL, partner 2.145 µg/mL	0.777
first compound 0.03 µg/mL, partner 4.29 µg/mL	0.665
first compound 0.05 µg/mL, partner 1.25 µg/mL	0.213
first compound 0.05 µg/mL, partner 2.5 µg/mL	0.235
first compound 0.05 µg/mL, partner 5 µg/mL	0.252
first compound 0.06 µg/mL, partner 4.29 µg/mL	0.33

Details	Bliss interaction score
B. subtilis 168	0.0322
S. aureus DSM 20231	-0.0342
S. aureus Newman	-0.0596
S. pneumoniae D39V [2]	-0.0991

CCC[C@@H]1C[C@@H](C(=O)N[C@@H]([C@H]2O[C@H](SC)[C@H](O)[C@@H](O)[C@H]2O)[C@H](C)Cl)N(C)C1 [Clindamycin] + O=C1CN(/N=C/c2ccc([N+](=O)[O-])o2)C(=O)N1 [Nitrofurantoin]
fitness, S. pneumoniae D39V [1]
Details	first compound 0.0125 µg/mL	first compound 0.015 µg/mL	first compound 0.025 µg/mL	first compound 0.03 µg/mL	first compound 0.05 µg/mL	first compound 0.06 µg/mL
partner 1.285 µg/mL	–	0.848	–	0.692	–	0.51
partner 2 µg/mL	0.583	–	0.302	–	0.0691	–
partner 2.57 µg/mL	–	0.886	–	0.708	–	0.445
partner 4 µg/mL	0.503	–	0.224	–	0.0581	–
partner 8 µg/mL	0.339	–	0.126	–	0.0351	–

S. pneumoniae D39V [1], partner 5.14 µg/mL, one replicate
Details	fitness
first compound 0.015 µg/mL	0.809
first compound 0.03 µg/mL	0.685
first compound 0.06 µg/mL	0.319

Details	Bliss interaction score
B. subtilis 168	-0.113
S. aureus DSM 20231	-0.0327
S. aureus Newman	-0.127
S. pneumoniae D39V [2]	-0.173
